Assay results published in patent publication US20050222173A1, “Triazolopyrimidines” (priority 2002, published 2005).

Assay: logP determination by HPLC (EEC Directive 79/831 Annex V. A8)
Details: for log.P: HPLC, gradient method, acetonitrile/0.1% aqueous phosphoric acid

| log.P | chromatographic logP | Structure (SMILES) |
| --- | --- | --- |
| 3.63 |  | C[C@@H](Nc1c(-c2ccccc2Cl)c(Cl)nc2nc(Cl)nn12)C(F)(F)F [Example 97] |
| 2.99 |  | COCCNc1c(-c2c(F)cc(F)cc2F)c(Cl)nc2nc(Br)nn12 [Example 55] |
| 3.7 |  | CCC(C)Nc1c(-c2c(F)cc(F)cc2F)c(Cl)nc2nc(Cl)nn12 (stereo not drawn) [Example 74] |
| 4.64 |  | CC1CCCN(c2c(-c3ccccc3Cl)c(Cl)nc3nc(Cl)nn23)C1 (stereo not drawn) [Example 92] |
| 3.51 |  | CCN(CCOC)c1c(-c2ccc(F)cc2F)c(Cl)nc2nc(Cl)nn12 [Example 122] |
| 3.85 |  | CCN(CC)c1c(-c2c(F)cc(F)cc2F)c(Cl)nc2nc(Cl)nn12 [Example 9] |
| 3.07 |  | CCNc1c(-c2c(F)cc(F)cc2F)c(Cl)nc2nc(Br)nn12 [Example 51] |
| 3.99 |  | CC(C)(C)Nc1c(-c2ccccc2Cl)c(Cl)nc2nc(Cl)nn12 [Example 22] |
| 3.94 |  | Fc1cc(F)c(-c2c(Cl)nc3nc(Br)nn3c2NC2CCCC2)c(F)c1 [Example 60] |
| 3.03 |  | Fc1cc(F)c(-c2c(Cl)nc3nc(Br)nn3c2N2CCOCC2)c(F)c1 [Example 49] |
| 4.45 |  | CC1CCCN(c2c(-c3c(F)cc(F)cc3F)c(Cl)nc3nc(Cl)nn23)C1 (stereo not drawn) [Example 88] |
| 3.14 |  | Fc1cc(F)c(-c2c(Cl)nc3nc(Br)nn3c2NC2CC2)c(F)c1 [Example 56] |
| 4.06 |  | CCCN(CCOC)c1c(-c2c(F)cccc2Cl)c(Cl)nc2nc(Cl)nn12 [Example 135] |
| 4.05 |  | CCC(C)CNc1c(-c2c(F)cc(F)cc2F)c(Cl)nc2nc(Br)nn12 (stereo not drawn) [Example 73] |
| 3.2 |  | COCCN(C)c1c(-c2ccc(F)cc2F)c(Cl)nc2nc(Cl)nn12 [Example 115] |
| 3.9 |  | Fc1cc(F)c(-c2c(Cl)nc3nc(Cl)nn3c2NC2CCCC2)c(F)c1 [Example 11] |
| 2.99 |  | Fc1cc(F)c(-c2c(Cl)nc3nc(Cl)nn3c2N2CCOCC2)c(F)c1 [Example 5] |
| 3.41 |  | CCCNc1c(-c2c(F)cc(F)cc2F)c(Cl)nc2nc(Br)nn12 [Example 54] |
| 3.74 |  | CC(C)CNc1c(-c2c(F)cccc2Cl)c(Cl)nc2nc(Cl)nn12 [Example 139] |
| 4.18 |  | Clc1nc2nc(Cl)c(-c3ccccc3Cl)c(N3CCCCC3)n2n1 [Example 32] |
| 2.77 |  | Fc1cc(F)c(-c2c(Cl)nc3nc(Br)nn3c2NN2CCOCC2)c(F)c1 [Example 57] |

| log.P | chromatographic logP | Structure (SMILES) |
| --- | --- | --- |
| 3.87 |  | CCN(CC1CCCO1)c1c(-c2ccc(F)cc2F)c(Cl)nc2nc(Cl)nn12 (stereo not drawn) [Example 121] |
| 3.72 |  | CC1CN(c2c(-c3c(F)cc(F)cc3F)c(Cl)nc3nc(Cl)nn23)CC(C)O1 (stereo not drawn) [Example 6] |
| 3.61 |  | CCOC(=O)CN(CC)c1c(-c2ccc(F)cc2F)c(Cl)nc2nc(Cl)nn12 [Example 123] |
| 3.14 |  | CN(CC1OCCO1)c1c(-c2ccc(F)cc2F)c(Cl)nc2nc(Cl)nn12 [Example 112] |
| 3.9 |  | CC(C)(C)Nc1c(-c2c(F)cc(F)cc2F)c(Cl)nc2nc(Br)nn12 [Example 58] |
| 3.37 |  | CCCNc1c(-c2c(F)cc(F)cc2F)c(Cl)nc2nc(Cl)nn12 [Example 10] |
| 3.18 |  | COc1nc2nc(Cl)c(-c3c(F)cc(F)cc3OC)c(NC(C)C(F)(F)F)n2n1 (stereo not drawn) [Example 80] |
| 3.21 |  | C#CCN(C)c1c(-c2ccc(F)cc2F)c(Cl)nc2nc(Cl)nn12 [Example 111] |
| 3.1 |  | Fc1cc(F)c(-c2c(Cl)nc3nc(Cl)nn3c2NC2CC2)c(F)c1 [Example 14] |
| 3.3 |  | C=C(C)CNc1c(-c2ccc(F)cc2F)c(Cl)nc2nc(Cl)nn12 [Example 108] |
| 3.5 |  | Fc1cc(F)c(-c2c(Cl)nc3nc(Br)nn3c2N2CCCC2)c(F)c1 [Example 52] |
| 3.99 |  | CCN(CC)c1c(-c2ccccc2Cl)c(Cl)nc2nc(Cl)nn12 [Example 31] |
| 3.32 |  | COCCN(C)c1c(-c2c(F)cccc2Cl)c(Cl)nc2nc(Cl)nn12 [Example 148] |
| 3.39 |  | CON(C)c1c(-c2c(F)cc(F)cc2F)c(Cl)nc2nc(Br)nn12 [Example 68] |
| 4.18 |  | CC(C)C(C)Nc1c(-c2ccccc2Cl)c(Cl)nc2nc(Br)nn12 (stereo not drawn) [Example 170] |
| 2.67 |  | CNc1c(-c2c(F)cc(F)cc2F)c(Cl)nc2nc(Cl)nn12 [Example 13] |
| 3.36 |  | CC(C)Nc1c(-c2c(F)cc(F)cc2F)c(Cl)nc2nc(Cl)nn12 [Example 47] |
| 4.62 |  | CC1CCN(c2c(-c3ccccc3Cl)c(Cl)nc3nc(Cl)nn23)CC1 [Example 82] |
|  | 0.37 | Nc1nnc(Br)[nH]1 [Example 185, 5-bromo-1,2,4-triazole-3-amine] |
| 2.55 |  | COC(=O)N(C)Nc1c(-c2ccccc2Cl)c(Cl)nc2nc(Cl)nn12 [Example 41] |
| 4.87 |  | CCC1=CCN(c2c(-c3ccccc3Cl)c(Cl)nc3nc(Cl)nn23)CC1 [Example 93] |

| log.P | chromatographic logP | Structure (SMILES) |
| --- | --- | --- |
| 4.31 |  | CC(C)CC(C)Nc1c(-c2ccc(F)cc2F)c(Cl)nc2nc(Cl)nn12 (stereo not drawn) [Example 109] |
| 3.69 |  | CN(Cc1ccco1)c1c(-c2ccc(F)cc2F)c(Cl)nc2nc(Cl)nn12 [Example 113] |
| 4.04 |  | CCC(C)CNc1c(-c2c(F)cc(F)cc2F)c(Cl)nc2nc(Cl)nn12 (stereo not drawn) [Example 69] |
| 3.46 |  | CCCNc1c(-c2ccccc2Cl)c(Cl)nc2nc(Cl)nn12 [Example 33] |
| 3.03 |  | Clc1nc2nc(Cl)c(-c3ccccc3Cl)c(N3CCOCC3)n2n1 [Example 27] |
| 3.36 |  | Fc1ccc(-c2c(Cl)nc3nc(Cl)nn3c2NCC2CC2)c(F)c1 [Example 107] |
| 2.91 |  | COCCNc1c(-c2c(F)cc(F)cc2F)c(Cl)nc2nc(Cl)nn12 [Example 12] |
| 3.96 |  | CC(C)C(C)Nc1c(-c2ccc(F)cc2F)c(Cl)nc2nc(Cl)nn12 (stereo not drawn) [Example 173] |
| 4.45 |  | CC1CCN(c2c(-c3c(F)cc(F)cc3F)c(Cl)nc3nc(Cl)nn23)CC1 [Example 90] |
| 3.31 |  | CC(C)Nc1c(-c2ccc(F)cc2F)c(Cl)nc2nc(Cl)nn12 [Example 95] |
| 3.74 |  | CCN(CC)c1c(-c2ccc(F)cc2F)c(Cl)nc2nc(Cl)nn12 [Example 125] |
| 3.9 |  | CCCN(CCOC)c1c(-c2ccc(F)cc2F)c(Cl)nc2nc(Cl)nn12 [Example 128] |
| 4.4 |  | C=C(C)CN(CC)c1c(-c2c(F)cc(F)cc2F)c(Cl)nc2nc(Br)nn12 [Example 76] |
| 2.82 |  | COCCNc1c(-c2ccc(F)cc2F)c(Cl)nc2nc(Cl)nn12 [Example 104] |
| 3.4 |  | CC(C)Nc1c(-c2c(F)cc(F)cc2F)c(Cl)nc2nc(Br)nn12 [Example 43] |
| 3.59 |  | C[C@H](Nc1c(-c2c(F)cc(F)cc2F)c(Cl)nc2nc(Br)nn12)C(F)(F)F [Example 99] |
| 3.33 |  | CC(C)NNc1c(-c2c(F)cc(F)cc2F)c(Cl)nc2nc(N(C)C)nn12 [Example 4] |
| 3.72 |  | CC1CN(c2c(-c3c(F)cc(F)cc3F)c(Cl)nc3nc(Br)nn23)CC(C)O1 (stereo not drawn) [Example 50] |
| 3.37 |  | C=C(C)CNc1c(-c2c(F)cc(F)cc2F)c(Cl)nc2nc(Cl)nn12 [Example 86] |
| 3.67 |  | CC(C)CN(N)c1c(-c2c(F)cc(F)cc2F)c(Cl)nc2nc(Cl)nn12 [Example 48] |
| 2.18 |  | OCCNc1c(-c2ccccc2Cl)c(Cl)nc2nc(Cl)nn12 [Example 21] |

| log.P | chromatographic logP | Structure (SMILES) |
| --- | --- | --- |
| 3.61 |  | CCN(CCOC)c1c(-c2c(F)cc(F)cc2F)c(Cl)nc2nc(Cl)nn12 [Example 77] |
| 3.5 |  | Fc1cc(F)c(-c2c(Cl)nc3nc(Br)nn3c2NCC2CC2)c(F)c1 [Example 62] |
| 3.42 |  | CC(C)Nc1c(-c2c(F)cccc2Cl)c(Cl)nc2nc(Cl)nn12 [Example 94] |
| 3.45 |  | CC(C)Nc1c(-c2ccccc2Cl)c(Cl)nc2nc(Br)nn12 [Example 45] |
| 3.98 |  | C=C(C)CN(C)c1c(-c2ccc(F)cc2F)c(Cl)nc2nc(Cl)nn12 [Example 116] |
| 3.95 |  | C=CCN(CC)c1c(-c2ccc(F)cc2F)c(Cl)nc2nc(Cl)nn12 [Example 119] |
| 3.36 |  | CON(C)c1c(-c2c(F)cc(F)cc2F)c(Cl)nc2nc(Cl)nn12 [Example 71] |
| 3.55 |  | Fc1cc(F)c(-c2c(Cl)nc3nc(Cl)nn3c2N2CCC(F)CC2)c(F)c1 [Example 83] |
| 3.68 |  | Fc1cc(F)c(-c2c(Cl)nc3nc(Cl)nn3c2N2CCSCC2)c(F)c1 [Example 15] |
| 2.7 |  | CNc1c(-c2ccccc2Cl)c(Cl)nc2nc(Cl)nn12 [Example 36] |
| 4.33 |  | CC1CCCCN1c1c(-c2c(F)cc(F)cc2F)c(Cl)nc2nc(Cl)nn12 (stereo not drawn) [Example 85] |
| 3.52 |  | CC(Nc1c(-c2ccc(F)cc2F)c(Cl)nc2nc(Cl)nn12)C(F)(F)F (stereo not drawn) [Example 96] |
| 4.16 |  | C=CCN(CC)c1c(-c2c(F)cccc2Cl)c(Cl)nc2nc(Cl)nn12 [Example 137] |
| 2.23 |  | OCCNc1c(-c2c(F)cc(F)cc2F)c(Cl)nc2nc(Cl)nn12 [Example 24] |
| 3.76 |  | CCC(C)Nc1c(-c2c(F)cc(F)cc2F)c(Cl)nc2nc(Br)nn12 (stereo not drawn) [Example 64] |
| 3.79 |  | Fc1ccc(-c2c(Cl)nc3nc(Cl)nn3c2NC2CCCC2)c(F)c1 [Example 103] |
| 4.21 |  | CC1=CCCN(c2c(-c3c(F)cc(F)cc3F)c(Cl)nc3nc(Cl)nn23)C1 [Example 87] |
| 1.65 |  | CCN(CCN(C)C)c1c(-c2ccc(F)cc2F)c(Cl)nc2nc(Cl)nn12 [Example 117] |
| 3.46 |  | Fc1cc(F)c(-c2c(Cl)nc3nc(Cl)nn3c2N2CCCC2)c(F)c1 [Example 8] |
| 3.18 |  | CN(C)Nc1c(-c2ccccc2Cl)c(Cl)nc2nc(Cl)nn12 [Example 40] |
| 4.08 |  | CC(C)CN(C)c1c(-c2ccc(F)cc2F)c(Cl)nc2nc(Cl)nn12 [Example 114] |

| Structure (SMILES) | log.P | chromatographic logP |
| --- | --- | --- |
| C[C@H](Nc1c(-c2c(F)cccc2Cl)c(Cl)nc2nc(Cl)nn12)C(F)(F)F [Example 100] | 3.6 |  |
| FC(F)C(F)(F)CNNc1c(-c2ccccc2Cl)c(Cl)nc2nc(Cl)nn12 [Example 18] | 3.59 |  |
| CC(NNc1c(-c2ccccc2Cl)c(Cl)nc2nc(Cl)nn12)C1CC1 (stereo not drawn) [Example 17] | 3.55 |  |
